According to ChEMBL document CHEMBL1146663, “Anti-inflammatory flavonoids and pterocarpanoid from Crotalaria pallida and C. assamica” (Bioorg Med Chem Lett, 2004):

Assays:
Rattus norvegicus [1] = organism: Rattus norvegicus; test: Inhibitory effect of compound on superoxide anion generation in rat neutrophils stimulated with PMA; assay type: functional
Mus musculus [2] = organism: Mus musculus; test: Inhibitory effect of compound on the accumulation of NO2 in the culture media of N9 cells in response to LPS/IFN-gamma; assay type: functional, cell-based
Mus musculus [3] = organism: Mus musculus; test: Inhibitory effect of compound on the accumulation of NO2 in the culture media of RAW 264.7 cells in response to LPS; assay type: functional, cell-based
Rattus norvegicus [4] = organism: Rattus norvegicus; test: Inhibitory effect of compound on superoxide anion generation in rat neutrophils stimulated with fMLP/CB; assay type: functional
Mus musculus [5] = organism: Mus musculus; test: Inhibitory effect of compound on the accumulation of NO2 in the culture media of RAW 264.7 cells in response to LPS; potent effect; assay type: functional
Mus musculus [6] = organism: Mus musculus; test: Inhibitory effect of compound on the accumulation of NO2 in the culture media of N9 cells in response to LPS/IFN-gamma; potent effect; assay type: functional

In the case of `O=c1c(O)c(-c2ccc(O)cc2)oc2cc(OC3O[C@H](CO)[C@@H](O)[C@H](O)[C@H]3O)cc(O)c12` (stereo partly specified), the IC50 (Rattus norvegicus [1]) is reported as > 30 µM, the IC50 (Mus musculus [2]) is reported as > 30 µM and the IC50 (Mus musculus [3]) is reported as > 30 µM. The IC50 (Rattus norvegicus [4]) was > 30 µM.

With `O=c1cc(-c2ccc(O)cc2)oc2cc(O)ccc12` the IC50 (Rattus norvegicus [1]) was > 30 µM, the IC50 (Mus musculus [2]) was > 30 µM and the IC50 (Mus musculus [3]) was > 30 µM. For the same compound, the IC50 (Rattus norvegicus [4]) was > 30 µM.

For `O=c1c(-c2ccc(O)cc2O)coc2cc(O)cc(O)c12`, the IC50 (Rattus norvegicus [1]) was > 30 µM, the IC50 (Mus musculus [2]) was > 30 µM and the IC50 (Mus musculus [3]) was > 30 µM. The IC50 (Rattus norvegicus [4]) was > 30 µM.

In the case of `O=c1c(-c2ccc(O)cc2O)coc2cc(O)ccc12`, the IC50 (Rattus norvegicus [1]) is reported as > 30 µM, the IC50 (Mus musculus [2]) is reported as > 30 µM and the IC50 (Mus musculus [3]) is reported as > 30 µM. The IC50 (Rattus norvegicus [4]) was 25.1 µM.

With `C[C@](O)(CO)c1cc2c3c(ccc2o1)[C@@H]1COc2cc(O)ccc2[C@@H]1O3` the IC50 (Rattus norvegicus [1]) was > 30 µM, the IC50 (Mus musculus [2]) was 13.9 µM and the IC50 (Mus musculus [3]) was > 30 µM. For the same compound, the IC50 (Rattus norvegicus [4]) was > 30 µM.

With `CC(=N)NCc1cccc(CN)c1` [1400W] the IC50 (Mus musculus [2]) was 2.2 µM and the IC50 (Mus musculus [3]) was 6.1 µM.

For `O=c1cc(-c2ccc(O)cc2)oc2cc(O)cc(O)c12` [APIGENIN], the IC50 (Rattus norvegicus [1]) was > 30 µM, the IC50 (Mus musculus [2]) was > 30 µM and the IC50 (Mus musculus [3]) was 10.7 µM. For the same compound, the IC50 (Rattus norvegicus [4]) was 3.4 µM.

`C=C(C)c1cc2c3c(ccc2o1)[C@@H]1COc2cc(O)ccc2[C@@H]1O3` [CROTAFURAN A] was tested, and the IC50 (Mus musculus [5]) was “potent effect” and the IC50 (Mus musculus [6]) was “potent effect”.

For `CC(=O)c1cc2c3c(ccc2o1)[C@@H]1COc2cc(O)ccc2[C@@H]1O3` [CROTAFURAN B], the IC50 (Mus musculus [5]) was “potent effect” and the IC50 (Mus musculus [6]) was “potent effect”.

In the case of `COc1cc(O)ccc1-c1coc2cc(O)cc(O)c2c1=O` [THERALIN], the IC50 (Rattus norvegicus [1]) is reported as > 30 µM, the IC50 (Mus musculus [2]) is reported as > 30 µM and the IC50 (Mus musculus [3]) is reported as > 30 µM. For the same compound, the IC50 (Rattus norvegicus [4]) was > 30 µM.

With `CN1CCN(CCCN2c3ccccc3Sc3ccc(C(F)(F)F)cc32)CC1` [TRIFLUOPERAZINE] the IC50 (Rattus norvegicus [1]) was 2.7 µM and the IC50 (Rattus norvegicus [4]) was 6.6 µM.
